Reference: article PMC5218480 (PLoS ONE, 2017)

Test system: MV-4-11 cells
Assay: Gene expression microarray analysis (Affymetrix PrimeView) and GSEA
Assay type: cell-based, human
Set-up: RFU PODN (11730768_x_at) / Fold change /veh PODN (11730768_x_at) / RFU LINC00158 (11744669_a_at) / Fold change /veh LINC00158 (11744669_a_at) / RFU DUSP10 (11751237_a_at) / Fold change /veh DUSP10 (11751237_a_at) / RFU ID3 (11757404_x_at) / Fold change /veh ID3 (11757404_x_at) / RFU PLEKHG5 (11737974_s_at) / Fold change /veh PLEKHG5 (11737974_s_at) / RFU LRRC4B (11730491_at) / Fold change /veh LRRC4B (11730491_at) / RFU GIMAP4 (11747438_a_at) / Fold change /veh GIMAP4 (11747438_a_at) / RFU KRT8 (11758183_x_at) / Fold change /veh KRT8 (11758183_x_at) / RFU CNN1 (11734310_a_at) / Fold change /veh CNN1 (11734310_a_at) / RFU VPS37D (11726825_at) / Fold change /veh VPS37D (11726825_at) / RFU C10orf10 (11716522_x_at) / Fold change /veh C10orf10 (11716522_x_at) / RFU KIR2DL2 /// KIR2DL4 /// KIR2DL5A /// KIR2DL5B /// KIR2DS1 /// KIR2DS2 /// KIR2DS3 /// KIR2DS4 /// KIR3DL3 /// KIR3DL3 /// KIR3DS1 (11738374_at) / Fold change /veh KIR2DL2 /// KIR2DL4 /// KIR2DL5A /// KIR2DL5B /// KIR2DS1 /// KIR2DS2 /// KIR2DS3 /// KIR2DS4 /// KIR3DL3 /// KIR3DL3 /// KIR3DS1 (11738374_at) / RFU C1QL1 (11718748_at) / Fold change /veh C1QL1 (11718748_at) / RFU TMPRSS4 (11747572_a_at) / Fold change /veh TMPRSS4 (11747572_a_at) / RFU HAMP (11756126_x_at) / Fold change /veh HAMP (11756126_x_at) / RFU RNFT2 (11725882_a_at) / Fold change /veh RNFT2 (11725882_a_at) / RFU NR4A2 (11747474_a_at) / Fold change /veh NR4A2 (11747474_a_at) / RFU ABCC12 (11746883_a_at) / Fold change /veh ABCC12 (11746883_a_at) / RFU TMEM136 (11760407_x_at) / Fold change /veh TMEM136 (11760407_x_at) / RFU CLDN22 /// WWC2 (11732394_at) / Fold change /veh CLDN22 /// WWC2 (11732394_at) / RFU HLA-DPB1 (11760878_x_at) / Fold change /veh HLA-DPB1 (11760878_x_at) / RFU SPINT1 (11716480_a_at) / Fold change /veh SPINT1 (11716480_a_at) / RFU GAP43 (11754022_s_at) / Fold change /veh GAP43 (11754022_s_at) / RFU A4GNT (11735810_at) / Fold change /veh A4GNT (11735810_at) / RFU PRB3 (11715151_x_at) / Fold change /veh PRB3 (11715151_x_at) / RFU TUBB4B (11761932_at) / Fold change /veh TUBB4B (11761932_at) / RFU CAPN14 (11732068_a_at) / Fold change /veh CAPN14 (11732068_a_at) / RFU TMCC2 (11721928_a_at) / Fold change /veh TMCC2 (11721928_a_at) / RFU IRGQ (11745062_a_at) / Fold change /veh IRGQ (11745062_a_at) / RFU FAM174B (11720279_a_at) / Fold change /veh FAM174B (11720279_a_at) / RFU TMPRSS4 (11748680_a_at) / Fold change /veh TMPRSS4 (11748680_a_at) / RFU FAM212B (11763350_a_at) / Fold change /veh FAM212B (11763350_a_at) / RFU PLEKHG5 (11743358_a_at) / Fold change /veh PLEKHG5 (11743358_a_at) / RFU ZSCAN30 (11745921_a_at) / Fold change /veh ZSCAN30 (11745921_a_at) / RFU CMKLR1 (11741424_a_at) / Fold change /veh CMKLR1 (11741424_a_at) / RFU LOC101060620 /// MAPK8IP1 (11723275_at) / Fold change /veh LOC101060620 /// MAPK8IP1 (11723275_at) / RFU SPTSSB (11747773_x_at) / Fold change /veh SPTSSB (11747773_x_at) / RFU PRSS12 (11739890_at) / Fold change /veh PRSS12 (11739890_at) / RFU BIN1 (11741810_x_at) / Fold change /veh BIN1 (11741810_x_at) / RFU WNT11 (11732464_a_at) / Fold change /veh WNT11 (11732464_a_at) / RFU C10orf10 (11716521_a_at) / Fold change /veh C10orf10 (11716521_a_at) / RFU C5orf56 (11738089_at) / Fold change /veh C5orf56 (11738089_at) / RFU CYB561 (11721691_x_at) / Fold change /veh CYB561 (11721691_x_at) / RFU ANKRD19P (11752326_a_at) / Fold change /veh ANKRD19P (11752326_a_at) / RFU OR2T12 /// OR2T33 /// OR2T8 (11738714_s_at) / Fold change /veh OR2T12 /// OR2T33 /// OR2T8 (11738714_s_at) / RFU VCAN (11748164_a_at) / Fold change /veh VCAN (11748164_a_at) / RFU JSRP1 (11732532_at) / Fold change /veh JSRP1 (11732532_at) / RFU KRTAP10-11 (11738290_x_at) / Fold change /veh KRTAP10-11 (11738290_x_at) / RFU MYO3A (11730013_a_at) / Fold change /veh MYO3A (11730013_a_at) / RFU EBF3 (11725865_a_at) / Fold change /veh EBF3 (11725865_a_at) / RFU CAMK2N1 (11719241_x_at) / Fold change /veh CAMK2N1 (11719241_x_at) / RFU C5orf56 (11738088_a_at) / Fold change /veh C5orf56 (11738088_a_at) / RFU OLFML3 (11715873_a_at) / Fold change /veh OLFML3 (11715873_a_at) / RFU LOC100653217 /// NTM (11731650_a_at) / Fold change /veh LOC100653217 /// NTM (11731650_a_at) / RFU MAPK11 (11762145_a_at) / Fold change /veh MAPK11 (11762145_a_at) / RFU FIZ1 (11724087_x_at) / Fold change /veh FIZ1 (11724087_x_at) / RFU OASL (11726364_x_at) / Fold change /veh OASL (11726364_x_at) / RFU SOX15 (11748057_x_at) / Fold change /veh SOX15 (11748057_x_at) / RFU CD79A (11719716_a_at) / Fold change /veh CD79A (11719716_a_at) / RFU HIST1H1D (11736915_at) / Fold change /veh HIST1H1D (11736915_at) / RFU CASKIN2 (11723855_a_at) / Fold change /veh CASKIN2 (11723855_a_at) / RFU LOC730098 (11760151_x_at) / Fold change /veh LOC730098 (11760151_x_at) / RFU OR4N2 (11742367_at) / Fold change /veh OR4N2 (11742367_at) / RFU PRRT2 (11749266_a_at) / Fold change /veh PRRT2 (11749266_a_at) / RFU SNX32 (11753110_a_at) / Fold change /veh SNX32 (11753110_a_at) / RFU CDHR5 (11726645_a_at) / Fold change /veh CDHR5 (11726645_a_at) / RFU RCAN1 (11760418_a_at) / Fold change /veh RCAN1 (11760418_a_at) / RFU FAM167A (11723789_a_at) / Fold change /veh FAM167A (11723789_a_at) / RFU FAM26E (11764081_at) / Fold change /veh FAM26E (11764081_at) / RFU ISYNA1 (11749810_s_at) / Fold change /veh ISYNA1 (11749810_s_at) / RFU ACY1 (11761880_at) / Fold change /veh ACY1 (11761880_at) / RFU 11764098_at / Fold change /veh 11764098_at / RFU SAMD14 (11745864_x_at) / Fold change /veh SAMD14 (11745864_x_at) / RFU NPB (11741838_a_at) / Fold change /veh NPB (11741838_a_at) / RFU TMPRSS6 (11731388_a_at) / Fold change /veh TMPRSS6 (11731388_a_at) / RFU KRTAP10-2 (11738614_at) / Fold change /veh KRTAP10-2 (11738614_at) / RFU ARHGAP8 /// PRR5-ARHGAP8 (11727945_x_at) / Fold change /veh ARHGAP8 /// PRR5-ARHGAP8 (11727945_x_at) / RFU KRTAP5-7 /// NADSYN1 (11734609_at) / Fold change /veh KRTAP5-7 /// NADSYN1 (11734609_at) / RFU RASL12 (11751679_a_at) / Fold change /veh RASL12 (11751679_a_at) / RFU CDKN2B (11736163_a_at) / Fold change /veh CDKN2B (11736163_a_at) / RFU PRF1 (11729649_at) / Fold change /veh PRF1 (11729649_at) / RFU, ZNF638 /// ZNF638-IT1 / Fold change vs veh, ZNF638 /// ZNF638-IT1 / RFU, PANK3 / Fold change vs veh, PANK3 / RFU, SH3YL1 / Fold change vs veh, SH3YL1 / RFU, ZEB2 / Fold change vs veh, ZEB2 / RFU, NRIP1 / Fold change vs veh, NRIP1 / RFU, PTTG1IP / Fold change vs veh, PTTG1IP / RFU, CAPN2 / Fold change vs veh, CAPN2 / RFU, MED14 / Fold change vs veh, MED14 / RFU, SNORA58 / Fold change vs veh, SNORA58 / RFU, C1orf63 / Fold change vs veh, C1orf63 / RFU, LRRFIP1 / Fold change vs veh, LRRFIP1 / RFU, NDUFAF7 / Fold change vs veh, NDUFAF7 / RFU, SLC12A2 / Fold change vs veh, SLC12A2 / RFU, IBTK / Fold change vs veh, IBTK / RFU, ESF1 / Fold change vs veh, ESF1 / Fold change vs veh, TMEM50B / RFU, TAOK1 / Fold change vs veh, TAOK1 / RFU, ACBD3 / Fold change vs veh, ACBD3 / RFU, TMA16 / Fold change vs veh, TMA16 / RFU, RWDD3 / Fold change vs veh, RWDD3 / RFU, BCAT1 / Fold change vs veh, BCAT1 / RFU, EDEM3 / Fold change vs veh, EDEM3 / RFU, TMEM33 / Fold change vs veh, TMEM33 / RFU, WDR75 / Fold change vs veh, WDR75 / RFU, AHCTF1 / Fold change vs veh, AHCTF1 / RFU, TFRC / Fold change vs veh, TFRC / RFU, ZDHHC17 / Fold change vs veh, ZDHHC17 / RFU, NOM1 / Fold change vs veh, NOM1 / RFU, ARL8B / Fold change vs veh, ARL8B / RFU, ZBTB11 / Fold change vs veh, ZBTB11 / RFU, TAMM41 / Fold change vs veh, TAMM41 / RFU, KIAA1704 /// LOC100996395 / Fold change vs veh, KIAA1704 /// LOC100996395 / RFU, ING1 / Fold change vs veh, ING1 / RFU, TRMT61B / Fold change vs veh, TRMT61B / RFU, FUBP3 / Fold change vs veh, FUBP3 / RFU, TP53 / Fold change vs veh, TP53 / RFU, TNKS2 / Fold change vs veh, TNKS2 / RFU, ZFP14 / Fold change vs veh, ZFP14 / RFU, ACTR2 / Fold change vs veh, ACTR2 / RFU, PPP3R1 / Fold change vs veh, PPP3R1 / RFU, PIK3R1 / Fold change vs veh, PIK3R1 / RFU, HNRNPA1 / Fold change vs veh, HNRNPA1 / RFU, RNF170 / Fold change vs veh, RNF170 / RFU, ZNF28 / Fold change vs veh, ZNF28 / RFU, RNGTT / Fold change vs veh, RNGTT / RFU, OGT / Fold change vs veh, OGT / RFU, BRD1 / Fold change vs veh, BRD1 / RFU, MARS / Fold change vs veh, MARS / RFU, ZNF655 / Fold change vs veh, ZNF655 / RFU, FAHD1 / Fold change vs veh, FAHD1 / RFU, BDP1 / Fold change vs veh, BDP1 / RFU, LRRCC1 / Fold change vs veh, LRRCC1 / RFU, ARID1A / Fold change vs veh, ARID1A / RFU, ZNF146 / Fold change vs veh, ZNF146 / RFU, ZNF330 / Fold change vs veh, ZNF330 / RFU, GPN3 / Fold change vs veh, GPN3 / RFU, C9orf123 / Fold change vs veh, C9orf123 / RFU, N4BP2L2 / Fold change vs veh, N4BP2L2 / RFU, ARFIP1 / Fold change vs veh, ARFIP1 / RFU, FAM179B / Fold change vs veh, FAM179B / RFU, BCL10 / Fold change vs veh, BCL10 / RFU, UHRF1BP1L / Fold change vs veh, UHRF1BP1L / RFU, BET1 / Fold change vs veh, BET1 / RFU, CNOT2 / Fold change vs veh, CNOT2 / RFU, ZNF268 / Fold change vs veh, ZNF268 / Fold change vs veh, ZNF507 / RFU, DGCR2 / Fold change vs veh, DGCR2 / RFU, WDSUB1 / Fold change vs veh, WDSUB1 / Fold change vs veh, HSP90B1 /// MIR3652 / RFU, ADSS / Fold change vs veh, ADSS / RFU, GK / Fold change vs veh, GK / RFU, ZNF148 / Fold change vs veh, ZNF148 / RFU, TAF9 / Fold change vs veh, TAF9 / RFU, SLC1A5 / Fold change vs veh, SLC1A5 / RFU, SLMO2 / Fold change vs veh, SLMO2 / RFU, ABCC4 / Fold change vs veh, ABCC4 / RFU, LOC101060439 /// RAP1B / Fold change vs veh, LOC101060439 /// RAP1B / RFU, RFX7 / Fold change vs veh, RFX7 / RFU, GTPBP10 / Fold change vs veh, GTPBP10 / RFU, CNEP1R1 / Fold change vs veh, CNEP1R1 / RFU, BIVM-ERCC5 /// ERCC5 / Fold change vs veh, BIVM-ERCC5 /// ERCC5 / RFU, ILF3 / Fold change vs veh, ILF3 / RFU 11762660_at / Fold change /veh 11762660_at / RFU VCAN (11757783_s_at) / Fold change /veh VCAN (11757783_s_at) / RFU DDX43 (11728927_at) / Fold change /veh DDX43 (11728927_at) / RFU KRT8 (11758188_x_at) / Fold change /veh KRT8 (11758188_x_at) / RFU NKD1 (11759106_at) / Fold change /veh NKD1 (11759106_at) / RFU SRD5A1 (11742802_a_at) / Fold change /veh SRD5A1 (11742802_a_at) / RFU TPSAB1 /// TPSB2 (11721975_s_at) / Fold change /veh TPSAB1 /// TPSB2 (11721975_s_at) / RFU GSTM3 (11746129_a_at) / Fold change /veh GSTM3 (11746129_a_at) / RFU IL23R (11737362_x_at) / Fold change /veh IL23R (11737362_x_at) / RFU TMEM51 (11727254_a_at) / Fold change /veh TMEM51 (11727254_a_at) / RFU PIWIL2 (11732686_x_at) / Fold change /veh PIWIL2 (11732686_x_at) / RFU ORM1 (11744905_x_at) / Fold change /veh ORM1 (11744905_x_at) / RFU CCDC152 (11743942_at) / Fold change /veh CCDC152 (11743942_at) / RFU ECM1 (11717891_a_at) / Fold change /veh ECM1 (11717891_a_at) / RFU IL23R (11748794_a_at) / Fold change /veh IL23R (11748794_a_at) / RFU TNFAIP8L3 (11732012_x_at) / Fold change /veh TNFAIP8L3 (11732012_x_at) / RFU MBOAT4 (11741988_at) / Fold change /veh MBOAT4 (11741988_at) / RFU 11764193_at / Fold change /veh 11764193_at / RFU TMEM53 (11763286_at) / Fold change /veh TMEM53 (11763286_at) / RFU MAGEB2 (11727129_at) / Fold change /veh MAGEB2 (11727129_at) / RFU TMEM200A (11744735_a_at) / Fold change /veh TMEM200A (11744735_a_at) / RFU CCDC152 (11751479_a_at) / Fold change /veh CCDC152 (11751479_a_at) / RFU FAM211A (11726209_a_at) / Fold change /veh FAM211A (11726209_a_at) / RFU RGS16 (11746705_a_at) / Fold change /veh RGS16 (11746705_a_at) / RFU VCAN (11755009_s_at) / Fold change /veh VCAN (11755009_s_at) / RFU RHOB (11743442_s_at) / Fold change /veh RHOB (11743442_s_at) / RFU RGS16 (11720943_a_at) / Fold change /veh RGS16 (11720943_a_at) / RFU RGS16 (11720944_at) / Fold change /veh RGS16 (11720944_at) / RFU, VPS4B / Fold change vs veh, VPS4B / RFU, CREB1 / Fold change vs veh, CREB1 / RFU, DNAJC13 / Fold change vs veh, DNAJC13 / RFU, GNAQ / Fold change vs veh, GNAQ / RFU, CDK5R1 / Fold change vs veh, CDK5R1 / RFU, ZRANB3 / Fold change vs veh, ZRANB3 / RFU, CUL4A / Fold change vs veh, CUL4A / RFU, CCNY / Fold change vs veh, CCNY / RFU, UFL1 / Fold change vs veh, UFL1 / RFU, COG3 / Fold change vs veh, COG3 / RFU, DIAPH2 / Fold change vs veh, DIAPH2 / RFU, SKA2 / Fold change vs veh, SKA2 / RFU, AFF3 / Fold change vs veh, AFF3 / RFU, LMF1 / Fold change vs veh, LMF1 / RFU, IPO11 / Fold change vs veh, IPO11 / RFU, DFFB / Fold change vs veh, DFFB / RFU, FOXP1 / Fold change vs veh, FOXP1 / RFU, CARD8 / Fold change vs veh, CARD8 / RFU, STRN3 / Fold change vs veh, STRN3 / RFU, ADK / Fold change vs veh, ADK / RFU, RASSF2 / Fold change vs veh, RASSF2 / RFU, WIPF1 / Fold change vs veh, WIPF1 / RFU, LARP1B / Fold change vs veh, LARP1B / RFU, RASA1 / Fold change vs veh, RASA1 / RFU, RB1 / Fold change vs veh, RB1 / RFU, PPFIA1 / Fold change vs veh, PPFIA1 / RFU, MAT2A / Fold change vs veh, MAT2A / RFU, CCT5 / Fold change vs veh, CCT5 / RFU, WDR92 / Fold change vs veh, WDR92 / RFU, CUX1 / Fold change vs veh, CUX1 / RFU, TTC7A / Fold change vs veh, TTC7A / RFU, TMEM135 / Fold change vs veh, TMEM135 / RFU, DEPTOR / Fold change vs veh, DEPTOR / RFU, CPM / Fold change vs veh, CPM / RFU, DNAJB6 / Fold change vs veh, DNAJB6 / RFU, CACNA2D3 / Fold change vs veh, CACNA2D3 / RFU, DTX4 / Fold change vs veh, DTX4 / RFU, TFCP2 / Fold change vs veh, TFCP2 / RFU, GMCL1 /// GMCL1P1 / Fold change vs veh, GMCL1 /// GMCL1P1 / RFU, AEBP2 / Fold change vs veh, AEBP2 / RFU, SNHG1 /// SNORD22 /// SNORD25 /// SNORD26 /// SNORD27 /// SNORD28 /// SNORD29 /// SNORD31 / Fold change vs veh, SNHG1 /// SNORD22 /// SNORD25 /// SNORD26 /// SNORD27 /// SNORD28 /// SNORD29 /// SNORD31 / Fold change (Aza/veh), C12orf56 (ProbeSet 11735607_a_at) / Fold change (ACY-1035/veh), C12orf56 (ProbeSet 11735607_a_at) / Fold change (Aza/veh), FGFR1OP (ProbeSet 11751329_s_at) / Fold change (ACY-1035/veh), FGFR1OP (ProbeSet 11751329_s_at) / Fold change (Aza/veh), VPS36 (ProbeSet 11739960_a_at) / Fold change (ACY-1035/veh), VPS36 (ProbeSet 11739960_a_at) / RFU SYPL1 (11715823_x_at) / Fold change /veh SYPL1 (11715823_x_at) / RFU IGFBP7 (11715501_s_at) / Fold change /veh IGFBP7 (11715501_s_at) / RFU REEP3 (11722064_at) / Fold change /veh REEP3 (11722064_at) / RFU IGLL1 (11728026_x_at) / Fold change /veh IGLL1 (11728026_x_at): dose or concentration left out as unconfirmed
Details: ProbeSet 11723475_a_at; LIST B

In the case of Nc1ccc(-c2cccs2)cc1NC(=O)c1ccc2c(c1)cc(C1CC1)n2CCN1CCOCC1 [ACY-1035], the “Fold change vs veh, TRMT61B” value is reported as 0.88.
